Laboratory results as given in patent publication US10975056B2 (GlaxoSmithKline Intellectual Property Development Limited, priority 2016, dated 2021).
Where a name gives a salt, the structure may show the parent alone.

Experiments:
[1] = target: DNMT1 (Homo sapiens, UniProt P26358); test: DNMT1 biochemical activity, breaklight assay and/or SPA assay; conditions: binned activity in either the breaklight or the SPA assay; for IC50: read-out: DNMT1 BioChemical (pIC50 category) (converted)
[2] = tested on: erythroid progenitor cells (EPCs); test: Fetal hemoglobin (HbF) ELISA in day 7 erythroid progenitor cells; assay type: cell-based, human; conditions: Homo sapiens, Erythroid progenitor cell, HbF ELISA, day 7 EPCs, 5 days; read-out: EPC ELISA (pEC50 category) (converted);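 also: for fetal hemoglobin induction normalized to vehicle-treated cells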
Outline: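 HbF induction was read by anti-HbF sandwich ELISA (HRP/TMB, OD450) on lysates and normalized to vehicle-treated cells. Cells were day 7 erythroid progenitors derived from human bone marrow CD34+ cells, seeded at 1,000/well with 3 U/mL rhEPO. Compound was given for 5 days at 37 °C at final concentrations […].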

Chain of DNMT1 (P26358 whole entry, looked up): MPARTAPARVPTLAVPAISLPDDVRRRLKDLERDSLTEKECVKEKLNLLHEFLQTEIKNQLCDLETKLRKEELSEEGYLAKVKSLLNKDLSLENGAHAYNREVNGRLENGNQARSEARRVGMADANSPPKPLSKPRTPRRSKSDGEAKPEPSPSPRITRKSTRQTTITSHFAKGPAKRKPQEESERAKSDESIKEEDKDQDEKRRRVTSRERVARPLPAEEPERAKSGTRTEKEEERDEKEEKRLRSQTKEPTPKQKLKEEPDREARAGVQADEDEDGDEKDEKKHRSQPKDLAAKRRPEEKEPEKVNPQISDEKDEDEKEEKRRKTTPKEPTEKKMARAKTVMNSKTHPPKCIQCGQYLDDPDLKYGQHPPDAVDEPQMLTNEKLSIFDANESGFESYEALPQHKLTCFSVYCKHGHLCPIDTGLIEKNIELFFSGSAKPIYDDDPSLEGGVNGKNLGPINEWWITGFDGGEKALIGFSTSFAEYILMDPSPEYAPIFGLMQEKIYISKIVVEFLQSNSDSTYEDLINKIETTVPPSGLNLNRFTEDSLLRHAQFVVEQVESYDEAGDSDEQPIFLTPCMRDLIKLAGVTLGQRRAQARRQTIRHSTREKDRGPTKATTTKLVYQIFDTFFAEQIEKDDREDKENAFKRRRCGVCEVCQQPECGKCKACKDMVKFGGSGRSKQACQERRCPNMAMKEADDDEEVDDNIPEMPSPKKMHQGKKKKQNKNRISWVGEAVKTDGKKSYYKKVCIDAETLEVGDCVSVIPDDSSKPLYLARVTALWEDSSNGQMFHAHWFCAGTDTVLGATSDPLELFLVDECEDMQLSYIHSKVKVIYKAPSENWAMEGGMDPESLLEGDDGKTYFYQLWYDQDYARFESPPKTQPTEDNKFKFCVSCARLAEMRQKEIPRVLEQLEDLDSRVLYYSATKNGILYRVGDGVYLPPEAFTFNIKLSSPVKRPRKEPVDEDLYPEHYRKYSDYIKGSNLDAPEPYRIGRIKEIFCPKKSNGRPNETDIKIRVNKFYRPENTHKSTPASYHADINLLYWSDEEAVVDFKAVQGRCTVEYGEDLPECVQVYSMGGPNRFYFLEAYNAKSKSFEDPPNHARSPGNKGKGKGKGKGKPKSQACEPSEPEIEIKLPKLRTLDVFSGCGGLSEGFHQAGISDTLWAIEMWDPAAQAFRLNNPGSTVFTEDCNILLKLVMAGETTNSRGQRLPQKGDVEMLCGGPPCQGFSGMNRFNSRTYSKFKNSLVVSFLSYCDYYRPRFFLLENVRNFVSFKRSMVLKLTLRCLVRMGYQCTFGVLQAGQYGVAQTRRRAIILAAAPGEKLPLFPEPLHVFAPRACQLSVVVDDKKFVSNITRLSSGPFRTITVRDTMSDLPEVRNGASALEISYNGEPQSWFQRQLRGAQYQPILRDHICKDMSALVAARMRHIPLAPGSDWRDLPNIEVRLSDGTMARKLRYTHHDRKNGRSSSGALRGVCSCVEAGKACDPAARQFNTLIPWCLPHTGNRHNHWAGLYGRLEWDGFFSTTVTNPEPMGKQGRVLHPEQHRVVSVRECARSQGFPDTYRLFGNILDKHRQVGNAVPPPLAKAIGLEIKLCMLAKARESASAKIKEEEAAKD

Compound | DNMT1 BioChemical (pIC50 category) [1] | EC50 [2] [nM] | IC50 [1] [nM]
CCc1c(C#N)c(SC(C(N)=O)c2ccccc2)nc(N(C)CC(=O)N2C[C@@H](O)[C@H](O)C2)c1C#N (stereo partly drawn) [Example 653, 2-((3,5-dicyano-6-((2-((3R,4R)-3,4-dihydroxypyrrolidin-1-yl)-2-oxoethyl)(methyl)amino)-4-ethylpyridin-2-yl)thio)-2-phenylacetamide] | D (Category D: ≥6.5) | 1000 to 31600 | 
CCc1c(C#N)c(SC(C(N)=O)c2ccccc2)nc(N(C)CC(=O)NC(CO)CO)c1C#N (stereo not shown) [Example 658, 2-((6-((2-amino-2-oxo-1-phenylethyl)thio)-3,5-dicyano-4-ethylpyridin-2-yl)(methyl)amino)-N-(1,3-dihydroxypropan-2-yl)acetamide] | D (Category D: ≥6.5) | 1000 to 31600 | 
CCc1c(C#N)c(SC(C(N)=O)c2ccccc2)nc(N(C)CC(=O)N2C[C@H](O)C[C@H](O)C2)c1C#N (stereo partly drawn) [Example 659, 2-((3,5-dicyano-6-((2-((3R,5S)-3,5-dihydroxypiperidin-1-yl)-2-oxoethyl)(methyl)amino)-4-ethylpyridin-2-yl)thio)-2-phenylacetamide] | D (Category D: ≥6.5) | < 316 | 
CCc1c(C#N)c(SC(C(N)=O)c2ccccc2)nc(N(C)CC(=O)N2C[C@H](O)[C@@H](O)C2)c1C#N (stereo partly drawn) [Example 660, 2-((3,5-dicyano-6-((2-((3S,4S)-3,4-dihydroxypyrrolidin-1-yl)-2-oxoethyl)(methyl)amino)-4-ethylpyridin-2-yl)thio)-2-phenylacetamide] | D (Category D: ≥6.5) | 1000 to 31600 | 
CCc1c(C#N)c(SC(C(N)=O)c2ccccc2)nc(N(C)CC(=O)N2CCO[C@@H](CO)C2)c1C#N (stereo partly drawn) [Example 662, 2-((3,5-dicyano-4-ethyl-6-((2-((R)-2-(hydroxymethyl)morpholino)-2-oxoethyl)(methyl)amino)pyridin-2-yl)thio)-2-phenylacetamide] | D (Category D: ≥6.5) | < 316 | 
CCc1c(C#N)c(SC(C(N)=O)c2ccccc2)nc(N(C)CC(=O)NOC)c1C#N (stereo not shown) [Example 663, 2-((6-((2-amino-2-oxo-1-phenylethyl)thio)-3,5-dicyano-4-ethylpyridin-2-yl)(methyl)amino)-N-methoxyacetamide] | D (Category D: ≥6.5) | < 316 | 
CCc1c(C#N)c(SC(C(N)=O)c2ccccc2)nc(N(C)CC(=O)N2C[C@H](CO)[C@@H](O)C2)c1C#N (stereo partly drawn) [Example 664, 2-((3,5-dicyano-4-ethyl-6-((2-((3R,4R)-3-hydroxy-4-(hydroxymethyl)pyrrolidin-1-yl)-2-oxoethyl)(methyl)amino)pyridin-2-yl)thio)-2-phenylacetamide] | D (Category D: ≥6.5) | 1000 to 31600 | 
CCc1c(C#N)c(SC(C(N)=O)c2ccccc2)nc(N(C)CC(=O)N(C)CCCO)c1C#N (stereo not shown) [Example 665, 2-((6-((2-amino-2-oxo-1-phenylethyl)thio)-3,5-dicyano-4-ethylpyridin-2-yl)(methyl)amino)-N-(3-hydroxypropyl)-N-methylacetamide] | D (Category D: ≥6.5) | < 316 | 
CCc1c(C#N)c(SC(C(N)=O)c2ccccc2)nc(N(C)CC(=O)NC[C@@H](O)CO)c1C#N (stereo partly drawn) [Example 666, 2-((6-((2-amino-2-oxo-1-phenylethyl)thio)-3,5-dicyano-4-ethylpyridin-2-yl)(methyl)amino)-N-((R)-2,3-dihydroxypropyl)acetamide] | D (Category D: ≥6.5) | 1000 to 31600 | 
CCc1c(C#N)c(SC(C(N)=O)c2ccccc2)nc(N(C)CC(=O)N(CCO)CCO)c1C#N (stereo not shown) [Example 668, 2-((6-((2-amino-2-oxo-1-phenylethyl)thio)-3,5-dicyano-4-ethylpyridin-2-yl)(methyl)amino)-N,N-bis(2-hydroxyethyl)acetamide] | D (Category D: ≥6.5) | 316 to 1000 | 
CCc1c(C#N)c(SC(C(N)=O)c2ccccc2)nc(N(C)CC(=O)NCCO)c1C#N (stereo not shown) [Example 669, 2-((6-((2-amino-2-oxo-1-phenylethyl)thio)-3,5-dicyano-4-ethylpyridin-2-yl)(methyl)amino)-N-(2-hydroxyethyl)acetamide] | D (Category D: ≥6.5) | < 316 | 
CCc1c(C#N)c(SC(C(N)=O)c2ccccc2)nc(N(C)CCCN)c1C#N (stereo not shown) [Example 670, 2-((6-((3-aminopropyl)(methyl)amino)-3,5-dicyano-4-ethylpyridin-2-yl)thio)-2-phenylacetamide hydrochloride] | D (Category D: ≥6.5) | < 316 | 
CCc1c(C#N)c(SC(C(N)=O)c2ccccc2)nc(N(C)CC(=O)NCC2(CO)CC2)c1C#N (stereo not shown) [Example 673, 2-((6-((2-amino-2-oxo-1-phenylethyl)thio)-3,5-dicyano-4-ethylpyridin-2-yl)(methyl)amino)-N-((1-(hydroxymethyl)cyclopropyl)methyl)acetamide] | D (Category D: ≥6.5) | < 316 | 
CCc1c(C#N)c(S[C@@H](C(N)=O)c2ccc(F)cc2F)nc(N2CC[C@H](O)C2)c1C#N [Example 674, (R)-2-((3,5-dicyano-4-ethyl-6-((S)-3-hydroxypyrrolidin-1-yl)pyridin-2-yl)thio)-2-(2,4-difluorophenyl)acetamide] | D (Category D: ≥6.5) | 1000 to 31600 | 
CCc1c(C#N)c(SC(C(N)=O)c2ccccc2)nc(N(C)CC(=O)NC2(CO)COC2)c1C#N (stereo not shown) [Example 675, 2-((6-((2-amino-2-oxo-1-phenylethyl)thio)-3,5-dicyano-4-ethylpyridin-2-yl)(methyl)amino)-N-(3-(hydroxymethyl)oxetan-3-yl)acetamide] |  | 316 to 1000 | < 316
CCc1c(C#N)c(SC(C(N)=O)c2ccccc2)nc(N(C)CC(=O)NCCCO)c1C#N (stereo not shown) [Example 677, 2-((6-((2-amino-2-oxo-1-phenylethyl)thio)-3,5-dicyano-4-ethylpyridin-2-yl)(methyl)amino)-N-(3-hydroxypropyl)acetamide] | D (Category D: ≥6.5) | 316 to 1000 | 
CCc1c(C#N)c(SC(C(N)=O)c2ccccc2)nc(N(C)CC(=O)NO)c1C#N (stereo not shown) [Example 679, 2-((6-((2-amino-2-oxo-1-phenylethyl)thio)-3,5-dicyano-4-ethylpyridin-2-yl)(methyl)amino)-N-hydroxyacetamide] | D (Category D: ≥6.5) | 316 to 1000 | 

Now from value to molecule:

DNMT1 BioChemical (pIC50 category) [1] | EC50 [2] [nM] | IC50 [1] [nM] | Compound
D (Category D: ≥6.5) | < 316 |  | CCc1c(C#N)c(SC(C(N)=O)c2ccccc2)nc(N2CCC[C@H](NCC(C)(C)C)C2)c1C#N (stereo partly drawn) [Example 651, 2-((3,5-dicyano-4-ethyl-6-((S)-3-(neopentylamino)piperidin-1-yl)pyridin-2-yl)thio)-2-phenylacetamide]
D (Category D: ≥6.5) | 1000 to 31600 |  | CCc1c(C#N)c(S[C@@H](C(N)=O)c2ccccc2)nc(N2CC[C@@](O)(CO)C2)c1C#N [Example 654, (R)-2-((3,5-dicyano-4-ethyl-6-((S)-3-hydroxy-3-(hydroxymethyl)pyrrolidin-1-yl)pyridin-2-yl)thio)-2-phenylacetamide]
D (Category D: ≥6.5) | 316 to 1000 |  | C[C@H](N)C(=O)NC1CCN(c2nc(SC(C(N)=O)c3ccccc3)c(C#N)c(C3CC3)c2C#N)CC1 (stereo partly drawn) [Example 655, (2S)-2-amino-N-(1-(6-((2-amino-2-oxo-1-phenylethyl)thio)-3,5-dicyano-4-cyclopropylpyridin-2-yl)piperidin-4-yl)propanamide]
D (Category D: ≥6.5) | 1000 to 31600 |  | N#Cc1c(SC(C(N)=O)c2ccccc2)nc(N2CCC(OCCN)CC2)c(C#N)c1C1CC1 (stereo not shown) [Example 656, 2-((6-(4-(2-aminoethoxy)piperidin-1-yl)-3,5-dicyano-4-cyclopropylpyridin-2-yl)thio)-2-phenylacetamide]
D (Category D: ≥6.5) | 1000 to 31600 |  | N#Cc1c(SC(C(N)=O)c2ccccc2)nc(N2CCC(NCCO)CC2)c(C#N)c1C1CC1 (stereo not shown) [Example 657, 2-((3,5-dicyano-4-cyclopropyl-6-(4-((2-hydroxyethyl)amino)piperidin-1-yl)pyridin-2-yl)thio)-2-phenylacetamide]
D (Category D: ≥6.5) | 1000 to 31600 |  | CCc1c(C#N)c(SC(C(N)=O)c2ccccc2)nc(N2CCC(CO)(NCCO)CC2)c1C#N (stereo not shown) [Example 661, 2-((3,5-dicyano-4-ethyl-6-(4-((2-hydroxyethyl)amino)-4-(hydroxymethyl)piperidin-1-yl)pyridin-2-yl)thio)-2-phenylacetamide]
 | 1000 to 31600 | < 316 | N#Cc1c(SC(C(N)=O)c2ccccc2)nc(N2CCC(NCC(N)=O)CC2)c(C#N)c1C1CC1 (stereo not shown) [Example 667, 2-((6-(4-((2-amino-2-oxoethyl)amino)piperidin-1-yl)-3,5-dicyano-4-cyclopropylpyridin-2-yl)thio)-2-phenylacetamide]
D (Category D: ≥6.5) | < 316 |  | CCc1c(C#N)c(SC(C(N)=O)c2ccccc2)nc(N2CC(CN)C2)c1C#N (stereo not shown) [Example 671, 2-((6-(3-(aminomethyl)azetidin-1-yl)-3,5-dicyano-4-ethylpyridin-2-yl)thio)-2-phenylacetamide]
D (Category D: ≥6.5) | 1000 to 31600 |  | CCc1c(C#N)c(SC(C(N)=O)c2ccccc2)nc(N2CC(ONC(=N)N)C2)c1C#N (stereo not shown) [Example 676, 2-((3,5-dicyano-4-ethyl-6-(3-(guanidinooxy)azetidin-1-yl)pyridin-2-yl)thio)-2-phenylacetamide]
